Assay results from patent US20210228523A1, “MODULATORS OF SESTRIN-GATOR2 INTERACTION AND USES THEREOF” (Navitor Pharmaceuticals, Inc., priority 2017, published 2021).

Target: T1, GATOR2/Sestrin2 complexes (Homo sapiens, UniProt P58004)
T1 construct: endogenous in cells; host or cells: HEK293T cells stably expressing FLAG-WDR24 (lentiviral, pLJM60)
T1 sequence (P58004 1-480): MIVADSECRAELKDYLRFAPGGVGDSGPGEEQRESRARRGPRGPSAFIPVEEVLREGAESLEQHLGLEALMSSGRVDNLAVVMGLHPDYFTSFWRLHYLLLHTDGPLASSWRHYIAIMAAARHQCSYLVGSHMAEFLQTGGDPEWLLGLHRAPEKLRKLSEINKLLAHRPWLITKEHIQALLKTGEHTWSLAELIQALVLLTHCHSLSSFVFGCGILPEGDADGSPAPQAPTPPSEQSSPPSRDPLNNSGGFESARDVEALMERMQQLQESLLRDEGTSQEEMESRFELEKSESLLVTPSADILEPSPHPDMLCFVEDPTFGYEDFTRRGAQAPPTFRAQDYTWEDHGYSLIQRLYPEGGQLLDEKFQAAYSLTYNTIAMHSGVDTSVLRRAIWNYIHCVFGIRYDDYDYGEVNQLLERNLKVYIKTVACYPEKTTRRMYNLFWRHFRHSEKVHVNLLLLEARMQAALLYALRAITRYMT
Test: In vitro PPI assay (Method 1; Western blot assay): Sestrin2 bound to GATOR2 after compound addition to immunoprecipitated FLAG-WDR24 complex
Assay type: binding
Settings: 25 μM, % activity relative to leucine (25 μM = 100%)
Text: This screening assay measured test compound activity in vitro on GATOR2/Sestrin2 complexes purified via immunoprecipitation of stably expressed FLAG-WDR24 from HEK293T cells. HEK293T cells (293 Ts) were engineered to stably express N-terminally tagged FLAG-WDR24 via transduction by lentivirus. Lentiviruses were produced by co-transfection of the lentiviral transfer vector pLJM60 with the […] into HEK-293T cells using the XTremeGene 9 transfection reagent (Roche Diagnostics). The media was changed 24 hours post-transfection to Dulbecco's Modified Eagle's media (DMEM) supplemented with 30% Inactivated Fetal Serum. The virus-containing supernatants were collected 48 and 72 hours after transfection and passed through a 0.45 μm filter to eliminate cells. Target cells in 6-well tissue culture plates were infected in media containing 8 μg/mL polybrene and spin infections were performed by centrifugation at 2,200 rpm for 1 hour. Twenty-four hours after infection, the virus was removed and the cells selected with the appropriate antibiotic. Cells were then grown in DMEM supplemented with 10% fetal bovine serum and antibiotics.
Seventy-two hours later, cells were placed in standard RPMI media formulated with no amino acids and supplemented with 5 mM Glucose (−AA RPMI, US Biological Life Sciences) for 1 hour then subsequently lysed in lysis buffer (40 mM HEPES, 1% Triton, 10 mM sodium β-glycerophosphate, 10 mM sodium pyrophosphate, 2.5 mM MgCl2 and protease inhibitors). To isolate the FLAG-WDR24/endogenous-Sestrin2 complex, crude lysate (equivalent to 2-4 mg of total protein) in a volume of 1 ml was subjected to immunoprecipitation with 30 μl of anti-flag resin (SIGMA) for 2 hours at 4° C., washed twice in cold lysis buffer plus 0.5M NaCl and resuspended in 1 ml of cold cytosolic buffer (40 mM HEPES pH 7.4, 140 mM KCl, 10 mM NaCl, 2.5 mM MgCl2, 0.1% TritonX-100). […] After the incubation period, samples were centrifuged to pellet the FLAG-WDR24/endogenous-Sestrin2 complex bound to the anti-flag resin, the supernatant was completely removed and resin was resuspended in SDS-PAGE sample buffer and boiled for 5 minutes. Samples were then processed by SDS-PAGE and western blots were performed with anti-FLAG (SIGMA) and anti-Sestrin2 (Cell Signaling Technology) antibodies as described in L. Chantranupong, et al., Cell Reports 9:1-8 (2014).
The resulting western blots were scanned and band intensities corresponding to Sestrin2 and FLAG-WDR24 were quantified using the LI-COR® imaging platform. To determine the amount of Sestrin2 bound to GATOR2 for each condition, the band intensity for Sestrin2 was normalized to the band intensity of FLAG-WDR24. […]
72 hours later, cells were placed in standard RPMI media formulated with no amino acids and supplemented with 5 mM Glucose (−AA RPMI, USBiological Life Sciences) for 1 hour then subsequently lysed in lysis buffer (40 mM HEPES, 1% Triton, 10 mM Sodium Beta-Glycerophosphate, 10 mM Sodium Pyrophosphate, 2.5 mM MgCl2 and protease inhibitors). The Flag-WDR24/endogenous-Sestrin2 complex was isolated as follows: crude lysate (equivalent to 2-4 mg of total protein) in a volume of 1 ml was subjected to immunoprecipitation (IP) with 30 μl of anti-flag resin (SIGMA) for 2 hours at 4° C., washed twice in cold lysis buffer plus 0.5M NaCl and resuspended in 1 ml of cold cytosolic buffer (40 mM HEPES pH 7.4, 140 mM KCl, 10 mM NaCl, 2.5 mM MgCl2, 0.1% TritonX-100). Compounds were then added to each sample at a given concentration of 25 μM and incubated with rotation at 4° C. for 30 minutes. After the incubation period, samples were centrifuged to pellet the Flag-WDR24/endogenous-Sestrin2 complex bound to the anti-flag resin, the supernatant was completely removed and resin was resuspended in sodium dodecyl sulfate-polyacrylamide gel electrophoresis (SDS-PAGE) sample buffer and boiled for 5 minutes. […]

Compound | Activity of Leucine: % Activity
CC(C[C@H](N)C(=O)O)C(F)(F)F (stereo in doubt) [Compound I-145, (2S,4R)-2-amino-5,5,5-trifluoro-4-methylpentanoic Acid] | A (a % activity relative to leucine of ≥40%)
CC(C[C@@H](N)C(=O)O)C(F)(F)F (stereo in doubt) [Compound I-146, (2R,4S)-2-amino-5,5,5-trifluoro-4-methylpentanoic Acid] | A (a % activity relative to leucine of ≥40%)
CC(C)C[C@@H](C(=O)O)N(C)C [Compound I-1, (S)-2-(dimethylamino)-4-methylpentanoic Acid] | B (a % activity relative to leucine of ≤−40%)
Cl.N[C@@H](CCCCC(F)(F)F)C(=O)O [Compound I-2, (S)-2-amino-7,7,7-trifluoroheptanoic Acid Hydrochloride] | B (a % activity relative to leucine of ≤−40%)
Cl.N[C@H](CCCCC(F)(F)F)C(=O)O [Compound I-3, (R)-2-amino-7,7,7-trifluoroheptanoic Acid Hydrochloride] | B (a % activity relative to leucine of ≤−40%)
N[C@@H](CC(F)(F)F)C(=O)O [Compound I-4, (S)-2-amino-4,4,4-trifluorobutanoic Acid] | C (a % activity relative to leucine of between -40 and 40%)
N[C@H](CC(F)(F)F)C(=O)O [Compound I-5, (R)-2-amino-4,4,4-trifluorobutanoic Acid] | B (a % activity relative to leucine of ≤−40%)
N[C@@H](CCC(F)(F)F)C(=O)O [Compound I-6, (S)-2-amino-5,5,5-trifluoropentanoic Acid] | C (a % activity relative to leucine of between -40 and 40%)
N[C@H](CCC(F)(F)F)C(=O)O [Compound I-7, (R)-2-amino-5,5,5-trifluoropentanoic Acid] | B (a % activity relative to leucine of ≤−40%)
N[C@@H](CCCC(F)(F)F)C(=O)O [Compound I-8, (S)-2-amino-6,6,6-trifluorohexanoic Acid] | B (a % activity relative to leucine of ≤−40%)
N[C@H](CCCC(F)(F)F)C(=O)O [Compound I-9, (R)-2-amino-6,6,6-trifluorohexanoic Acid] | C (a % activity relative to leucine of between -40 and 40%)
CC(C)C[C@@H](N)B1OC(C)(C)C(C)(C)O1 [Compound I-10] | C (a % activity relative to leucine of between -40 and 40%)
CC(C)C[C@H](NCc1ccccc1)C(=O)O [Compound I-11, (S)-2-(benzylamino)-4-methylpentanoic Acid] | C (a % activity relative to leucine of between -40 and 40%)
CC(C)C[C@H](NC(=O)Cc1ccccc1)C(=O)O [Compound I-12, (S)-4-methyl-2-(2-phenylacetamido)pentanoic Acid] | C (a % activity relative to leucine of between -40 and 40%)
CC(C)C[C@H](NC(C)C)C(=O)O [Compound I-13, (S)-2-(isopropylamino)-4-methylpentanoic Acid] | C (a % activity relative to leucine of between -40 and 40%)
CC(C)CN[C@@H](CC(C)C)C(=O)O [Compound I-14, (S)-2-(isobutylamino)-4-methylpentanoic Acid] | B (a % activity relative to leucine of ≤−40%)
CC(C)C[C@H](NC(=O)c1ccccc1)C(=O)O [Compound I-15, (S)-2-benzamido-4-methylpentanoic Acid] | C (a % activity relative to leucine of between -40 and 40%)

Compound | Activity of Leucine: % Activity
CC(C)C[C@H](NC(=O)C(C)C)C(=O)O [Compound I-16, (S)-2-isobutyramido-4-methylpentanoic Acid] | C (a % activity relative to leucine of between -40 and 40%)
CC(C)C[C@H](NS(=O)(=O)C1CCCCC1)C(=O)O [Compound I-17, (S)-2-(cyclohexanesulfonamido)-4-methylpentanoic Acid] | C (a % activity relative to leucine of between -40 and 40%)
CC(C)C[C@H](NS(=O)(=O)Cc1ccccc1)C(=O)O [Compound I-18, (S)-4-methyl-2-(phenylmethylsulfonamido)pentanoic Acid] | C (a % activity relative to leucine of between -40 and 40%)
CC(C)C[C@H](NS(C)(=O)=O)C(=O)O [Compound I-19, (S)-4-methyl-2-(methylsulfonamido)pentanoic Acid] | C (a % activity relative to leucine of between -40 and 40%)
CC(C)C[C@H](N)C(=O)Nc1ccccc1 [Compound I-20, (S)-2-amino-4-methyl-N-phenylpentanamide] | C (a % activity relative to leucine of between -40 and 40%)
CNC(=O)[C@@H](N)CC(C)C [Compound I-21, (S)-2-amino-N,4-dimethylpentanamide] | C (a % activity relative to leucine of between -40 and 40%)
CC(C)C[C@H](NC(=O)C1CCCCC1)C(=O)O [Compound I-22, (S)-2-(Cyclohexanecarboxamido)-4-methylpentanoic Acid] | C (a % activity relative to leucine of between -40 and 40%)
CN[C@@H](CC(C)C)C(=O)O.Cl [Compound I-24] | A (a % activity relative to leucine of ≥40%)
CC(C)C[C@H](NS(=O)(=O)c1ccccc1)C(=O)O [Compound I-25, (S)-4-methyl-2-(phenylsulfonamido)pentanoic Acid] | C (a % activity relative to leucine of between -40 and 40%)
CC(C)C[C@H](Nc1ccccc1)C(=O)O [Compound I-26, (S)-4-methyl-2-(phenylamino)pentanoic Acid] | C (a % activity relative to leucine of between -40 and 40%)
CC(C)[C@H](O)[C@H](N)C(=O)O [Compound I-27] | A (a % activity relative to leucine of ≥40%)
CC(C)[C@H](N)C(=O)O [Compound I-28] | C (a % activity relative to leucine of between -40 and 40%)
CC[C@@H](C)[C@H](N)C(=O)O [Compound I-29] | A (a % activity relative to leucine of ≥40%)
CSCC[C@H](N)C(=O)O [Compound I-30] | A (a % activity relative to leucine of ≥40%)
CCCC[C@H](N)C(=O)O [Compound I-31] | A (a % activity relative to leucine of ≥40%)
CC(C)C[C@](C)(N)C(=O)O [Compound I-32] | A (a % activity relative to leucine of ≥40%)
CC(C)CC(N)S(=O)(=O)O (stereo not shown) [Compound I-33] | C (a % activity relative to leucine of between -40 and 40%)
